# Assays:
# [1] = test system: APP in SH-SY-5Y human neuroblastoma cells; test: APP in vitro, Western blot; assay type: cell-based; details: 0, 0.1, 1, 5 and 10 μM, FIG. 1
# [2] = test system: traumatic brain injury rats; test: Traumatic brain injury rats; assay type: in vivo, rat
# Source text: (§1) Butanetap's efficacy in treating neurodegeneration in animal models: Restored memory and learning in an APP/PS1 transgenic (tg) mouse model of AD; Restored memory and learning in a Ts65dn mouse model of Down syndrome (DS) [W. Mobley, UCSD, submitted 2020]; Preserved the retina in acute glaucoma [J Sundstrom; Hershey Medical School]; Restored colonic motility in a human SNCAA53T tg mouse model of PD (Kuo et. al., Am J Neurodegener Dis 2019; 8(1):1-15 www.AJND.us/ISSN:216 591X/AJND0086080: Translational inhibition of α-synuclein by Butanetap (Posiphen) normalizes distal colon motility in transgenic Parkinson mice); Preserved memory and learning in traumatic brain injury rats (M-F Chesselet, submitted 2020).
# (§2) Butanetap's reversal of the neurotoxic cascade: Butanetap's mechanism of action is related to APP, Tau, and aSYN expression being regulated by RP1 and by iron and the way these proteins contribute to neurodegeneration by accumulating as toxic aggregates that impair axonal transport and synaptic transmission, causing inflammation, and, finally, leading to nerve cell death (as described previously).
# [3] = test system: fully differentiated healthy resting nerve cells; test: Translation of neurotoxic aggregating proteins in differentiated nerve cells; assay type: cell-based
# Source text: (§3) Therefore, the original data concerning the effects of butanetap working under all conditions is wrong. (See, e.g., Lahiri, et al., “The Experimental Alzheimer's Disease Drug butanetap [(+)-Phenserine] Lowers Amyloid-β Peptide Levels in Cell Culture and Mice”, J. Pharmacol. Ther. 320:386-396, 2007 (hereby incorporated by reference)). It only works in stressed cells, dividing cells and sick cells, e.g., those cells that have high levels of iron.
# [4] = test system: human SNCAA53T tg mouse model of PD; details: SNCAA53T tg mice; cited from earlier work
# [5] = test system: fully differentiated Down syndrome nerve cells; test: Vesicle transport in Down syndrome nerve cells; assay type: cell-based
# Source text: as §2
# [6] = test system: aSYN in SH-SY-5Y human neuroblastoma cells; test: alpha-synuclein in vitro, Western blot; assay type: cell-based; details: 0, 0.1, 1, 5 and 10 μM, FIG. 5
# Procedure: • A. FIG. 5, alpha-synuclein in vitro. […] On the left is a Western blot showing butanetap inhibition of aSYN in relation to Actin standard at concentrations of 0, 0.1, 1, 5 and 10 μM and on the right a graph showing the same data plotted for statistical analysis purposes. • B. FIG. 6, alpha-synuclein brain in vivo. […] The animals were only treated for 2 weeks, so in brain it takes butanetap only 2 weeks to lower levels of alpha-synuclein. • C. FIG. 7, alpha-synuclein in gut in vivo. Gut levels of aSYN following treatment of PD A53T mice with 10 mg/kg for 21 weeks and 21 days reduced αSYN levels in the gut as shown by Western Blot.
# [7] = test system: neurotoxic aggregating proteins; test: Translation of neurotoxic aggregating proteins in healthy mouse brain; assay type: in vivo
# Source text: as §3
# [8] = test system: neurotoxic aggregating proteins in stem cells (dividing cells); test: Neurotoxic aggregating proteins in stem cells and derived neurons; assay type: cell-based
# [9] = Phase 1 single and multiple ascending dose safety, tolerance, pharmacokinetic studies in healthy volunteers; assay type: in vivo, human; details: Phase I pharmacokinetic analyses
# Source text: (§4) Three Phase I clinical studies have established butanetap's safety. […] Therefore, we conclude that a much lower single daily butanetap dose would be effective in the proposed study.
# αSYN = assay type: in vivo, mice; details: 50 and 65 mg/kg for 21 days, FIG. 6
# [10] = test system: immortalized neuroblastoma (SH-SY5Y) cells; test: Gingipain cytotoxicity on neuroblastoma cells, AlamarBlue viability; assay type: cell-based; details: 48 hours, between 1 and 10 nM
# Procedure: (§5) Immortalized Mouse Astrocytes—SV40T (IMA2.1), immortalized Mouse Microglia (SIM-A9) and immortalized neuroblastoma (SH-SY5Y) cells were infected for 48 hours with gingipains HRgpA and RgpB (arginine gingipains), and Kgp (lysine-specific cysteine proteinase—Lys-gingipain, KGP). After 48 hours the cells were assessed for viability with the AlamarBlue assay and the percentage of dead or alive cells versus control was plotted. […] As expected, since neither are dying, […]. […] Therefore, we expect the efficacious buntanetap dose to fight P. gingivalis infection to be the same as to treat Alzheimer's and Parkinson's disease has no impact on the microglia or neuroblastoma survival in the presence of gingipains.
# [11] = test system: APP/PS1 transgenic (tg) mouse model of AD; test: APP/PS1 transgenic mouse model of AD, memory, learning and synaptic transmission; assay type: in vivo
# Source text: as §1, §2
# [12] = Efficacious concentration in tissue culture; assay type: cell-based
# [13] = test system: Immortalized Mouse Astrocytes—SV40T (IMA2.1); test: Gingipain cytotoxicity on astrocytes, AlamarBlue viability; assay type: cell-based; details: retest at much lower concentrations, 1 nM, FIG. 10
# Procedure: as §5
# FIG. 10 show the results of retesting of the gingipain effect on astroglia at much lower concentrations.
# [14] = Double Alzheimer/Parkinson phase 2 clinical trial; assay type: in vivo, human
# Source text: as §4
structure (smiles),measurement,setting,value
"CN1CC[C@]2(C)c3cc(OC(=O)Nc4ccccc4)ccc3N(C)C12 (stereo partly drawn) [butanetap, (3aR)-1,3a,8-trimethyl-1,2,3,3a,8,8a-hexahydropyrrolo[2,3-b]indol-5-yl phenylcarbamate]",APP in relation to Actin standard,[1],lowers APP in vitro in a dose-dependent manner
same,inflammation,[2]; rat brain after TBI,lowered
same,impaired synaptic transmission,[2]; rat striatum after TBI,Normalized
same,nerve cells,[2]; rat substantia nigra after TBI,protected
same,memory and learning,[2]; traumatic brain injury rats,Preserved
same,translation of neurotoxic aggregating proteins,[3],does not inhibit
same,colonic motility,[4],Restored
same,anterograde and retrograde vesicle transport,[5],Normalized
same,aSYN in relation to Actin standard,[6],lowers aSYN in vitro in a dose-dependent manner
same,translation of neurotoxic aggregating proteins,[7],does not inhibit
same,neurotoxic aggregating proteins,[8]; differentiated neurons derived from the stem cells,not in the differentiated neurons
same,neurotoxic aggregating proteins,[8]; stem cells (dividing cells),inhibits
same,concentration in brain relative to plasma,[9],about 8 times
same,αSYN in the brain,αSYN,reduced
same,neuroblastoma survival in the presence of gingipains,[10],no impact
same,memory and learning,[11]; APP/PS1 tg mice,Restored
same,impaired synaptic transmission,[11]; hippocampus of APP/PS1 tg mice,Normalized
same,dose found to be efficacious,[12],1 nM
same,protection of gingipain infected astrocytes,[13],completely protected
same,protection of gingipain infected astrocytes,[13]; listed as buntanetap,protects astrocytes at very low concentrations
same,axonal and synaptic function,[14]; AD and PD patients,improved
same,inflammatory markers,[14]; AD and PD patients,reduced
same,neurotoxic protein biomarkers,[14]; AD and PD patients,reduced
same,blood brain barrier crossing,"[14]; AD and PD patients, once daily",crossed the blood brain barrier
same,cognition as measured by ADAS-Cog11 and WAIS coding speed,"[14]; AD patients, 80 mg QD, significant versus baseline, not versus placebo",improved
same,"motor function as measured by MDS-UPDRS (Part II, III, IV and total)","[14]; PD patients, 5, 10, 20, 40, 80 mg QD, maximum improvement for 10 & 20 mg",improved at all doses
same,WAIS speed and accuracy,"[14]; PD patients, significant versus placebo at 5, 20 and 80 mg",improved

# From patent US12582632B2, “Inhibition of neurological injuries due to infections via administration of Butanetap and analogs thereof” (priority 2021, dated 2026)
